From article PMC2365101, “Anti-Inflammatory Activity of (Polyphenolic)-Sulfonates and Their Sodium Salts in Rodents” (Metal-Based Drugs, 1998)

Target: T1, IL-1 high affinity receptor on L929 fibroblasts (Mus musculus, UniProt P13504)
T1 construct: host or cells: L929 mouse fibroblasts
T1 sequence (P13504 20-576): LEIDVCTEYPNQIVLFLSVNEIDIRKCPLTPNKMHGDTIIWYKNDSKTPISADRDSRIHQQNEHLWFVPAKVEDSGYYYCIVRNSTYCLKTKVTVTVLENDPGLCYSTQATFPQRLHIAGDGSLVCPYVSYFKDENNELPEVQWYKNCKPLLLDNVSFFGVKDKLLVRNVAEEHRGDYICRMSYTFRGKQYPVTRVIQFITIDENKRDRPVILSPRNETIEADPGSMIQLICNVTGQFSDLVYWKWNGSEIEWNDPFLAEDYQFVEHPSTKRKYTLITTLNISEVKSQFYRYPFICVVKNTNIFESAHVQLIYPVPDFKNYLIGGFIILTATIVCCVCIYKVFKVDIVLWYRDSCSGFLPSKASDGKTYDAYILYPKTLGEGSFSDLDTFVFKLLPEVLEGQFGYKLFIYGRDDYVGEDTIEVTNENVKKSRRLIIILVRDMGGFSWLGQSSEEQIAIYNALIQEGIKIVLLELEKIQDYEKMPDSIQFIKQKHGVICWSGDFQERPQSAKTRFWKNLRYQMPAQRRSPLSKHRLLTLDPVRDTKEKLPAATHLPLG
Experiment: 125I-IL-1 high affinity binding to L929 fibroblasts
Conditions: for 125I-IL-1 binding, Percent of Control: at 8 Hours (table title), N=6; for reduction of IL-1 high affinity receptor binding: 5 to 50 μM, 5 hr
Source text: Few reports in the literature indicate interaction at these receptor sites other than by peptides or antibodies. […] Blocking these receptors is desirable because the entire inflammation cascade of events is triggered by the early release of TNFa and IL-1. […] Radioisotopes were obtained from New England Nuclear [Dupont, Boston, MA] and substrates and co- factors were obtained from Sigma Chemical Co. [St. Louis, MO]. […] Cell lines were obtained from American Type Culture Collection [Rockville, MD]. In Vivo Tests Anti-inflammatory screen in mice: Male CF male mice weighing 28-32g obtained from Jackson Lab. [Bar Harbor, […]] were used to screen agents at 8 or 16 mg/kg intraperitoneal [I.P.] x 2 administered 3 hr and 30 min prior to administering the irritant, according to Winter's protocol. Evaluation of the induced edema was made by injecting 2% carrageenan in 0.9% saline into the plantar region of the foot. The opposite foot injected with 0.9% isotonic saline was used as a base line. […] Salmonella abortus equi [Lot # 69F4003] […] Drugs from 2 to 16 mg/kg, I.P. were administered 2 hr prior and 2 hr post-injection of the LPS and then subsequently for every 24 hr for the length ofthe animals' lives. Deaths were recorded every 12 hr and continued for 96 hr. […] In vitro TNFa andIL-1 Measurements and Cellular Regulation IC-21 mouse macrophages were maintained in RPMI-1640 + 10% FCS + P/S. After the cells had grown to confluency, E. coli LPS at 10 Ixg/ml was added to the medium. Agents were incubated at 12.5 to 100 µM final concentration for 18 hr. The medium (100 btl) was collected for TNFCt determinations. Interleukin-1 [IL-1] release was determined using P388D1 cells which were maintained in RPMI-1640 + 10% FCS + P/S. The L929 bioassay was used to quantitate the TNF and the IL-1 levels. The L929 mouse fibroblasts were grown in DMEM + 10% FCS + P/S to confluency in 96 well plates and incubated with 100 tl ofmedium from IC-20 or P388D cells after 18 hr. The cells were stained with 0.2% crystal violet in 20% MeOH and read at 580 nm using a Molecular Devices scanner (SOFT-max program). […] The cells were washed repeatedly with isotonic saline, pH.7.2 and aliquots counted. Prostaglandin cylcooxygenase activity Mouse J774AI macrophages maintained in Dulbecco's modified Eagle's medium + 15% FCS + P/S. Cells (5 x 106) were incubated with agents (5 to 100 ].tM final concentration) and 3H-arachidonic acid (100 Ci/mol) for 60 min at 37C in a CO2 incubator. The reaction was terminated with 2N HCI, the mixture extracted 2 X with ether, and the organic layer evaporated.

## COc1c2cc(S(=O)(=O)[O-])cc1Cc1cc(S(=O)(=O)[O-])cc(c1OC)Cc1cc(S(=O)(=O)[O-])cc(c1OC)Cc1cc(S(=O)(=O)[O-])cc(c1OC)Cc1cc(S(=O)(=O)[O-])cc(c1OC)Cc1cc(S(=O)(=O)[O-])cc(c1OC)C2.[Na+].[Na+].[Na+].[Na+].[Na+].[Na+] [Compound 6]
5 μM
  125I-IL-1 binding, Percent of Control: 3+2% of Control
12.5 μM
  125I-IL-1 binding, Percent of Control: 3 + 2% of Control
25 μM
  125I-IL-1 binding, Percent of Control: 3 + 2% of Control
50 μM
  125I-IL-1 binding, Percent of Control: 3 + 1% of Control
  reduction of IL-1 high affinity receptor binding: greater than 90%

## CC(=O)Oc1c2cc(S(=O)(=O)[O-])cc1Cc1cc(S(=O)(=O)[O-])cc(c1OC(C)=O)Cc1cc(S(=O)(=O)[O-])cc(c1OC(C)=O)Cc1cc(S(=O)(=O)[O-])cc(c1OC(C)=O)Cc1cc(S(=O)(=O)[O-])cc(c1OC(C)=O)Cc1cc(S(=O)(=O)[O-])cc(c1OC(C)=O)Cc1cc(S(=O)(=O)[O-])cc(c1OC(C)=O)Cc1cc(S(=O)(=O)[O-])cc(c1OC(C)=O)C2.[Na+].[Na+].[Na+].[Na+].[Na+].[Na+].[Na+].[Na+] [Compound 8]
5 μM
  125I-IL-1 binding, Percent of Control: 9+ 1% of Control
12.5 μM
  125I-IL-1 binding, Percent of Control: 10 + 5% of Control
25 μM
  125I-IL-1 binding, Percent of Control: 9 + 5% of Control
50 μM
  125I-IL-1 binding, Percent of Control: 7 + 4% of Control
  reduction of IL-1 high affinity receptor binding: greater than 90%
